According to ChEMBL document CHEMBL1629433, “Synthesis and pharmacological evaluation of the stereoisomers of 3-carba cyclic-phosphatidic acid” (Bioorg Med Chem Lett, 2010):
pKi: −log10 of the molar value. The source made the active and inactive calls. The calls are words filed in the database; no cut-off is given here.

How the values were obtained:
Autotaxin [1] = biological target: T1, Autotaxin (Homo sapiens, UniProt Q13822); assay: Inhibition of recombinant ATX mediated hydrolysis of FS-3 at 0.5 to 2 times IC50
Autotaxin [2] = biological target: T1, Autotaxin; assay: Inhibition of recombinant ATX mediated hydrolysis of FS-3
[3] = biological target: Lysophosphatidic acid receptor 5 (Homo sapiens) (UniProt Q9H1C0); assay: Agonist activity at LPA5 receptor expressed in rat B103 cells assessed as calcium mobilization at >1 uM; type: functional, cell-based
B16-F10 = assay: Antitumor activity against mouse B16-F10 cells grafted in C57/BL6 mouse assessed as inhibition of lung metastases of cancer cells at 0.5 mg/kg/day, ip administered for 10 days and measured on day 21; type: functional, organism-based

Chain of Lysophosphatidic acid receptor 5 (Homo sapiens) (Q9H1C0 whole entry): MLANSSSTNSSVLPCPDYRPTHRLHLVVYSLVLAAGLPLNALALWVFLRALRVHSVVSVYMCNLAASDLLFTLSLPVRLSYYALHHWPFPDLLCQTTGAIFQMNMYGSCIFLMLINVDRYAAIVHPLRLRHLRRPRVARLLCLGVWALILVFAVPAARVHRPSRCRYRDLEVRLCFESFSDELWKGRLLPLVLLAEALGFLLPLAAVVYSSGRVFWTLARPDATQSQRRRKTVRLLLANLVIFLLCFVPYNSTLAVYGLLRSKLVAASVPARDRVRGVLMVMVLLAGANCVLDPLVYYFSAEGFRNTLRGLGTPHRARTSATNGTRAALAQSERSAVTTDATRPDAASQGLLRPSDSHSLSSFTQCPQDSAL

inhibition (Autotaxin [1])	pKi (Autotaxin [2])	Activity [3]	SMILES	inhibition (B16-F10)
Active	6.10	Active	CCCCCCCCCCCCCCCCCC(=O)OC[C@H]1CCP(=O)(O)O1	Active
Active	5.80	Active	CCCCCCCCCCCCCCCCCC(=O)OC[C@@H]1CCP(=O)(O)O1	Active
			CCCCCCCCCCCCCCCCCC(=O)OCC1CCP(=O)(O)O1 (racemic)	Active
